# According to patent publication US20130102463A1, “Herbicidal Compositions” (BASF SE, priority 2010, published 2013):
# “And” between values parts separate entries of the source, which are not always exact repeats. Equal entries are not always repeated.
# How the values were obtained:
# [1] = tested on: fleabane (Erigeron canadiensis, ERICA); assay: Example 2: herbicidal action; whole plants sprayed with A and B in the spraying chamber, high light; format: in vivo, Erigeron canadensis
# [2] = tested on: fleabane (Erigeron canadiensis, ERICA); assay: Example 1: herbicidal action; whole plants sprayed with B, PPO inhibitor applied as local leaf treatment, high light; format: in vivo, Erigeron canadensis
# [3] = tested on: velvet leave (Abutilon theophrasti, ABUTH); assay: Example 2: herbicidal action; whole plants sprayed with A and B in the spraying chamber, high light; format: in vivo
# [4] = tested on: morningglory (Pharbitis purpurea, PHBPU); assay: as above; format: in vivo
# [5] = tested on: fleabane (Erigeron canadiensis); assay: Example 3: herbicidal action; whole plants sprayed with B, component A applied as local leaf treatment, high light; format: in vivo, Erigeron canadensis; conditions: ERICA
# [6] = tested on: moringglory (Pharbitis purpurea, PHBPU); assay: Example 1: herbicidal action; whole plants sprayed with B, PPO inhibitor applied as local leaf treatment, high light; format: in vivo
# [7] = walk-in chamber, 4 DAT, rate 0.125 g/ha (A alone)
# [8] = walk-in chamber, 14 DAT, rate 0.125 g/ha (A alone)
# [9] = growth chamber, 4 DAT, rate 0.250 g/ha (A alone)
# [10] = growth chamber, 4 DAT, rate 0.500 g/ha (A alone)
# [11] = growth chamber, 14 DAT, rate 0.250 g/ha (A alone)
# [12] = growth chamber, 14 DAT, rate 0.500 g/ha (A alone)
# [13] = walk-in chamber, 4 DAT, rate 20 g/ha (A alone)
# [14] = walk-in chamber, 14 DAT, rate 20 g/ha (A alone)
# [15] = 11 DAT, rate 500 g/ha (B alone)
# [16] = 10 DAT, rate 1000 g/ha (B alone)
# [17] = 42 DAT, rate 1000 g/ha (B alone)
# [18] = 4 DAT, rate 2000 g/ha (B alone)
# [19] = 10 DAT, rate 2000 g/ha (B alone)
# [20] = 5 DAT, rate 1000 g/ha (B alone)
# [21] = 11 DAT, rate 1000 g/ha (B alone)
compound,measurement,setting,value
"CC(C)N(C)S(=O)(=O)NC(=O)c1cc(-n2c(=O)cc(C(F)(F)F)n(C)c2=O)c(F)cc1Cl [A.1.1, saflufenacil]",% damage,"[1]; walk-in chamber, 1 DAT, rate 0.125 g/ha (A alone)",38%
same,% damage,"[1]; walk-in chamber, 1 DAT, rate 0.250 g/ha (A alone)",70%
same,% damage,"[1]; walk-in chamber, 1 DAT, rate 0.350 g/ha (A alone)",65%
same,% damage,[1]; [7],38%
same,% damage,"[1]; walk-in chamber, 4 DAT, rate 0.250 g/ha (A alone)",83%
same,% damage,"[1]; walk-in chamber, 4 DAT, rate 0.350 g/ha (A alone)",90%
same,% damage,[1]; [8],18%
same,% damage,"[1]; walk-in chamber, 14 DAT, rate 0.250 g/ha (A alone)",67%
same,% damage,"[1]; walk-in chamber, 14 DAT, rate 0.350 g/ha (A alone)",75%
same,% damage,"[2]; 7 DAT, rate 60 g/ha (A alone)",10%
same,% damage,"[2]; 10 DAT, rate 60 g/ha (A alone)",56%
same,% damage,"[2]; 11 DAT, rate 60 g/ha (A alone)",10% and 18% and 19%
same,% damage,"[2]; 42 DAT, rate 60 g/ha (A alone)",45%
same,% damage,[3]; [9],67%
same,% damage,[3]; [10],96%
same,% damage,[3]; [11],35%
same,% damage,[3]; [12],83%
same,% damage,[4]; [9],95%
same,% damage,[4]; [10],98%
same,% damage,[4]; [11],85%
same,% damage,[4]; [12],93%
same,% damage,"[5]; 2 DAT, rate 60 g/ha (A alone)",55%
same,% damage,"[5]; 8 DAT, rate 60 g/ha (A alone)",34%
same,% damage,"[6]; 4 DAT, rate 60 g/ha (A alone)",28%
same,% damage,"[6]; 10 DAT, rate 60 g/ha (A alone)",35%
"CCOC(=O)COc1ncccc1Oc1cc(-n2c(=O)cc(C(F)(F)F)n(C)c2=O)c(F)cc1Cl [A.1.2, ethyl[3-[2-chloro-4-fluoro-5-(1-methyl-6-trifluoromethyl-2,4-dioxo-1,2,3,4-tetrahydropyrimidin-3-yl)phenoxy]-2-pyridyloxy]acetate]",% damage,"[1]; walk-in chamber, 4 DAT, rate 10 g/ha (A alone)",95%
same,% damage,"[1]; walk-in chamber, 14 DAT, rate 10 g/ha (A alone)",80%
same,% damage,"[4]; walk-in chamber, 4 DAT, rate 0.5 g/ha (A alone)",99%
same,% damage,"[4]; walk-in chamber, 14 DAT, rate 0.5 g/ha (A alone)",96%
"CCOC(=O)C(Cl)Cc1cc(-n2nc(C)n(C(F)F)c2=O)c(F)cc1Cl (centres unmarked) [A.2.1, carfentrazone-ethyl]",% damage,"[1]; growth chamber, 4 DAT, rate 10 g/ha (A alone)",57%
same,% damage,"[1]; growth chamber, 14 DAT, rate 10 g/ha (A alone)",47%
same,% damage,"[4]; growth chamber, 4 DAT, rate 0.5 g/ha (A alone)",94%
same,% damage,"[4]; growth chamber, 14 DAT, rate 0.5 g/ha (A alone)",83%
"CCOc1cc(Oc2ccc(C(F)(F)F)cc2Cl)ccc1[N+](=O)[O-] [A.4.1, oxyfluorofen]",% damage,[3]; [13],93%
same,% damage,[3]; [14],80%
same,% damage,"[4]; walk-in chamber, 4 DAT, rate 5 g/ha (A alone)",94%
same,% damage,[4]; [13],99%
same,% damage,"[4]; walk-in chamber, 14 DAT, rate 5 g/ha (A alone)",83%
same,% damage,[4]; [14],95%
"C#CCN1C(=O)COc2cc(F)c(-n3c(=O)n(C)c(=S)n(C)c3=O)cc21 [A.5.1, 3-[7-fluoro-3-oxo-4-(prop-2-ynyl)-3,4-dihydro-2H-benzo[1,4]oxazin-6-yl]-1,5-dimethyl-6-thioxo-[1,3,5]triazinan-2,4-dione]",% damage,"[3]; walk-in chamber, 4 DAT, rate 1 g/ha (A alone)",94%
same,% damage,"[3]; walk-in chamber, 14 DAT, rate 1 g/ha (A alone)",55%
same,% damage,[4]; [7],92%
same,% damage,[4]; [8],70%
"C#CCN1C(=O)COc2cc(F)c(N3C(=O)C4=C(CCCC4)C3=O)cc21 [A.5.2, flumioxazin]",% damage,"[3]; growth chamber, 4 DAT, rate 2 g/ha (A alone)",98%
same,% damage,"[3]; growth chamber, 14 DAT, rate 2 g/ha (A alone)",98%
"CC(C)(C)CC(C)(C)c1cc(Cc2cc(C(C)(C)CC(C)(C)C)cc(-n3nc4ccccc4n3)c2O)c(O)c(-n2nc3ccccc3n2)c1 [B.1.1.1, 2,2-methylenbis-6-(benzotriazol-2-yl)-4-tert-octylphenol]",% damage,"[5]; 2 DAT, rate 500 g/ha (B alone)",0%
same,% damage,"[5]; 8 DAT, rate 500 g/ha (B alone)",0%
CCCCN1C(=O)c2cc3nn(-c4cc(C(C)(C)CC(C)(C)C)cc(C(C)(C)c5ccccc5)c4O)nc3cc2C1=O [B.1.1.2],% damage,"[5]; 2 DAT, rate 500 g/ha (B alone)",0%
same,% damage,"[5]; 8 DAT, rate 500 g/ha (B alone)",0%
"CCCCC(CC)COC(=O)C(C#N)=C(c1ccccc1)c1ccccc1 (centres unmarked) [B.1.2.2, 2-cyano-3,3-diphenylacrylic acid-2′-ethylhexyl ester]",% damage,"[2]; 7 DAT, rate 500 g/ha (B alone)",10%
same,% damage,[2]; [15],10%
"CCCCC(CC)COC(=O)C=Cc1ccc(OC)cc1 (centres unmarked) [B.1.5.1, 2-ethylhexyl 4-methoxycinnamate]",% damage,"[5]; 2 DAT, rate 500 g/ha (B alone)",0%
same,% damage,"[5]; 8 DAT, rate 500 g/ha (B alone)",0%
"CCCCCCOC(=O)c1ccccc1C(=O)c1ccc(N(CC)CC)cc1O [B.1.6.1, 2-(4-diethylamino-2-hydroxybenzoyl)-benzoic acid hexylester]",% damage,"[2]; 7 DAT, rate 500 g/ha (B alone)",0%
same,% damage,[2]; [15],0%
"O=C(c1ccccc1)c1ccc(O)cc1O [B.1.6.3, 2,4-dihydroxybenzo-phenone]",% damage,[2]; [16],13%
same,% damage,[2]; [17],0%
same,% damage,[6]; [18],39%
same,% damage,[6]; [19],20%
"COc1ccc(C(=O)c2ccccc2)c(O)c1 [B.1.6.4, 2-hydroxy-4-methoxybenzophenone]",% damage,"[2]; 5 DAT, rate 500 g/ha (B alone)",5%
same,% damage,[2]; [16],0%
same,% damage,[2]; [15],5%
same,% damage,[2]; [17],13%
same,% damage,"[5]; 2 DAT, rate 500 g/ha (B alone)",0%
same,% damage,"[5]; 8 DAT, rate 500 g/ha (B alone)",0%
same,% damage,[6]; [18],15%
same,% damage,[6]; [19],10%
CCN(CC)c1ccc(C(=O)c2ccccc2C(=O)N2CCN(C(=O)c3ccccc3C(=O)c3ccc(N(CC)CC)cc3O)CC2)c(O)c1 [B.1.6.5],% damage,"[5]; 2 DAT, rate 500 g/ha (B alone)",0%
same,% damage,"[5]; 8 DAT, rate 500 g/ha (B alone)",0%
"COc1cc(O)c(C(=O)c2ccccc2)cc1S(=O)(=O)O [B.1.7.1, 2-hydroxy-4-methoxy-benzophenone-5-sulfonic acid]",% damage,"[5]; 2 DAT, rate 500 g/ha (B alone)",0%
same,% damage,"[5]; 8 DAT, rate 500 g/ha (B alone)",0%
"CCCCC(CC)COC(=O)c1ccc(Nc2nc(Nc3ccc(C(=O)OCC(CC)CCCC)cc3)nc(Nc3ccc(C(=O)OCC(CC)CCCC)cc3)n2)cc1 (centres unmarked) [B.1.11.1, 2,4,6-trinanilino-p-(carbo-2′-ethyl-hexyl-1′-oxy)-1,3,5-triazine]",% damage,"[5]; 2 DAT, rate 500 g/ha (B alone)",0%
same,% damage,"[5]; 8 DAT, rate 500 g/ha (B alone)",0%
CNC(=O)c1ccc(Nc2nc(NC)nc(Nc3ccc(/C=C/c4ccc(Nc5nc(NC)nc(Nc6ccc(C(=O)NC)cc6)n5)cc4S(=O)(=O)[O-])c(S(=O)(=O)[O-])c3)n2)cc1.[Na+].[Na+] [B.1.16.1],% damage,"[5]; 2 DAT, rate 500 g/ha (B alone)",0%
same,% damage,"[5]; 8 DAT, rate 500 g/ha (B alone)",0%
"CCOC(=O)C(C#N)=C1C=C(NC(C)CC)CC(C)(C)C1 (centres unmarked) [B.1.17.1, 2-cyano-2-[5,5-dimethyl-3-[(1-methylpropyl)amino]-2-cyclohexen-1-ylidene]-acetic acid ethyl ester]",% damage,"[5]; 2 DAT, rate 500 g/ha (B alone)",0%
same,% damage,"[5]; 2 DAT, rate 1000 g/ha (B alone)",0%
same,% damage,"[5]; 8 DAT, rate 500 g/ha (B alone)",0%
same,% damage,"[5]; 8 DAT, rate 1000 g/ha (B alone)",0%
"CC(C)c1cccc(C(C)C)c1N1C(=O)c2cccc3c(Oc4ccc(C(C)(C)CC(C)(C)C)cc4)ccc(c23)C1=O [B.1.18.1, 2-[2,6-bis(1-methylethyl)phenyl]-6-[4-(1,1,3,3-tetramethylbutyl)phenoxy]-1H-benz[de]isoquinoline-1,3(2H)-dione]",% damage,"[5]; 2 DAT, rate 500 g/ha (B alone)",0%
same,% damage,"[5]; 8 DAT, rate 500 g/ha (B alone)",0%
"CCCOC(=O)c1cc(O)c(=O)c2c(O)c(O)ccc2c1 [B.1.19.1, 3,4,6-trihydroxy-5-oxo-5H-benzocycloheptene-8-carboxylic acid propyl ester]",% damage,"[5]; 2 DAT, rate 250 g/ha (B alone)",0%
same,% damage,"[5]; 2 DAT, rate 500 g/ha (B alone)",0%
same,% damage,"[5]; 8 DAT, rate 250 g/ha (B alone)",0%
same,% damage,"[5]; 8 DAT, rate 500 g/ha (B alone)",0%
"Cc1c(C)c2c(c(C)c1O)CC[C@@](C)(CCC[C@H](C)CCC[C@H](C)CCCC(C)C)O2 [B.3.4.1, α-tocopherol]",% damage,"[2]; 5 DAT, rate 7000 g/ha (B alone)",0%
same,% damage,"[2]; 11 DAT, rate 7000 g/ha (B alone)",0%
"c1ccc(Nc2ccccc2)cc1 [B.3.19.1, diphenylamine]",% damage,[2]; [20],0%
same,% damage,[2]; [21],0%
"Oc1ccc(C=Cc2cc(O)cc(O)c2)cc1 [B.3.27.1, resveratrol]",% damage,[2]; [20],10%
same,% damage,[2]; [21],0%
"CC1=CC(=O)CC(C)(C)[C@@]1(O)/C=C/C(C)=C\C(=O)O [B.3.28.1, abscisic acid]",% damage,[2]; [20],1%
same,% damage,[2]; [21],0%
"CCCOC(=O)c1cc(O)c(O)c(O)c1 [B.3.29.1, n-propylgallate]",% damage,[2]; [20],0% and 5%
same,% damage,[2]; [21],0% and 8%
